Test results taken from patent US9586931B2 (Merck Sharp & Dohme Corp., priority 2012, dated 2017).

molecular target: T1, recombinant human GST-Syk (Homo sapiens, UniProt P43405); assay: Homogeneous Time-Resolved Fluorescence (HTRF) assay for the recombinant human Syk enzyme; type: biochemical; settings: recombinant human GST-Syk 5 pM, ATP 25 μM, 10-dose titration 10 μM to 0.508 nM; read-out: rhSYK Activity IC50
T1 construct: purchased Carna Biosciences 08-176
Summary of the method: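 Detection used time-resolved fluorescence 30 min after adding a quench mix (40 mM EDTA, 15 mM Tris pH 7.5, 0.01% Tween 20) containing 2 nM Europium anti-pTyr antibody and 70 nM streptavidin-APC. This followed 45 min of room-temperature peptide phosphorylation by recombinant GST-tagged human Syk.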

IC50 [µM]	SMILES
0.255	CCOC(=O)C(C)(C)Cc1cn(-c2cc(C)cc(Nc3nccc(C(F)(F)F)n3)c2)nn1 [Example 15.15, ethyl 2,2-dimethyl-3-[1-(3-methyl-5-{[4-(trifluoromethyl)pyrimidin-2-yl]amino}phenyl)-1H-1,2,3-triazol-4-yl]propanoate]
0.0475	Cc1cc(Nc2ncc(F)c(C(F)F)n2)cc(-c2cn(CC(C)(O)C(C)(C)O)nn2)c1 (centres unmarked) [Example 21.15, 1-[4-(3-{[4-(difluoromethyl)-5-fluoropyrimidin-2-yl]amino}-5-methylphenyl)-1H-1,2,3-triazol-1-yl]-2,3-dimethylbutane-2,3-diol]
0.007	Cc1cc(Nc2nccc(C(F)(F)F)n2)cc(-c2cn(CC(C)(O)CO)nn2)c1 (single isomer, unassigned) [Example 21.3, 2-methyl-3-[4-(3-methyl-5-{[4-(trifluoromethyl)pyrimidin-2-yl]amino}phenyl)-1H-1,2,3-triazol-1-yl]propane-1,2-diol]
0.0047	Cc1cc(Nc2cc(C(F)(F)F)ccn2)nc(-c2cn(C3CCCCC(O)C3O)nn2)c1 (single isomer, unassigned) [Example 10.6, 3-[4-(4-methyl-6-{[4-(trifluoromethyl)pyridin-2-yl]amino}pyridin-2-yl)-1H-1,2,3-triazol-1-yl]cycloheptane-1,2-diol]
0.0105	Cc1cc(Nc2cc(C(F)(F)F)ccn2)nc(-c2cn(C3CN(C(=O)C(C)O)CC3O)nn2)c1 (single isomer, unassigned) [Example 13.3, 1-[2-hydroxypropanoyl]-4-[4-(4-methyl-6-{[4-(trifluoromethyl)pyridin-2-yl]amino}pyridin-2-yl)-1H-1,2,3-triazol-1-yl]pyrrolidin-3-ol]
0.0073	Cc1cc(Nc2cc(C(F)F)ccn2)nc(-c2cn(CC(C)(O)CC#N)nn2)c1 (single isomer, unassigned) [Example 23.1, 4-(4-(6-((4-(difluoromethyl)pyridin-2-yl)amino)-4-methylpyridin-2-yl)-1H-1,2,3-triazol-1-yl)-3-hydroxy-3-methylbutanenitrile]
0.0076	Cc1cc(Nc2ncc(F)c(C(F)F)n2)cc(-c2cn(CC3CNC(=O)O3)nn2)c1 (single isomer, unassigned) [Example 7.35, 5-{[4-(3-{[4-(difluoromethyl)-5-fluoropyrimidin-2-yl]amino}-5-methylphenyl)-1H-1,2,3-triazol-1-yl]methyl}-1,3-oxazolidin-2-one]
0.0233	Cc1cc(Nc2cc(C(F)(F)F)ccn2)nc(-c2cn(CC(O)C(C)(C)O)nn2)c1 (centres unmarked) [Example 10.12, 3-methyl-1-[4-(4-methyl-6-{[4-(trifluoromethyl)pyridin-2-yl]amino}pyridin-2-yl)-1H-1,2,3-triazol-1-yl]butane-2,3-diol]
0.088	Cc1cc(Nc2nccc(C(F)(F)F)n2)cc(-n2cc(CC(C)(C)C(=O)O)nn2)c1 [Example 15.13, 2,2-dimethyl-3-[1-(3-methyl-5-{[4-(trifluoromethyl)pyrimidin-2-yl]amino}phenyl)-1H-1,2,3-triazol-4-yl]propanoic acid]
0.0136	Cc1cc(Nc2nccc(C(F)F)n2)cc(-c2cn(CC(C)(O)C(C)(C)O)nn2)c1 (centres unmarked) [Example 21.25, 1-[4-(3-{[4-(difluoromethyl)pyrimidin-2-yl]amino}-5-methylphenyl)-1H-1,2,3-triazol-1-yl]-2,3-dimethylbutane-2,3-diol]

Second part, the compound before the results:

SMILES	IC50 [µM]
Cc1cc(Nc2cc(C(F)(F)F)ccn2)nc(-c2cn(CC3CCCCO3)nn2)c1 (racemic) [Example 5.4, 4-methyl-6-[1-(tetrahydro-2H-pyran-2-ylmethyl)-1H-1,2,3-triazol-4-yl]-N-[4-(trifluoromethyl)pyridin-2-yl]pyridin-2-amine]	0.0635
Cc1cc(Nc2cc(C(F)(F)F)ccn2)nc(-c2cn(CC3(O)CCOCC3)nn2)c1 [Example 4.13, 4-{[4-(4-methyl-6-{[4-(trifluoromethyl)pyridin-2-yl]amino}pyridin-2-yl)-1H-1,2,3-triazol-1-yl]methyl}tetrahydro-2H-pyran-4-ol]	0.0256
Cc1cc(Nc2cc(C(F)(F)F)ccn2)nc(-c2cn(C[C@@H]3CNC(=O)O3)nn2)c1 [Example 5.103, (5S)-5-{[4-(4-methyl-6-{[4-(trifluoromethyl)pyridin-2-yl]amino}pyridin-2-yl)-1H-1,2,3-triazol-1-yl]methyl}-1,3-oxazolidin-2-one]	0.0019
Cc1cc(Nc2nccc(C(F)(F)F)n2)cc(-c2cn(CC3(O)CCC(C(=O)O)C(C)(C)C3)nn2)c1 (centres unmarked) [Example 3.4, 4-hydroxy-2,2-dimethyl-4-{[4-(3-methyl-5-{[4-(trifluoromethyl)pyrimidin-2-yl]amino}phenyl)-1H-1,2,3-triazol-1-yl]methyl}cyclohexanecarboxylic acid]	0.0814
Cc1cc(Nc2cc(C(F)(F)F)ccn2)nc(-c2cn(C/C=C/c3ccncc3)nn2)c1 [Example 5.33, 4-methyl-6-{1-[(2E)-3-pyridin-4-ylprop-2-en-1-yl]-1H-1,2,3-triazol-4-yl}-N-[4-(trifluoromethyl)pyridin-2-yl]pyridin-2-amine]	0.0585
COc1ccc(C2CN(C(=O)C(C)n3cc(-c4cc(C)cc(Nc5cc(C(F)(F)F)ccn5)n4)nn3)CCS2)cc1 (centres unmarked) [Example 1.45, 6-(1-{2-[2-(4-methoxyphenyl)thiomorpholin-4-yl]-1-methyl-2-oxoethyl}-1H-1,2,3-triazol-4-yl)-4-methyl-N-[4-(trifluoromethyl)pyridin-2-yl]pyridin-2-amine]	0.172
Cc1cc(Nc2cc(C(F)(F)F)ccn2)nc(-c2cn(CC#N)nn2)c1 [Example 5.92, [4-(4-methyl-6-{[4-(trifluoromethyl)pyridin-2-yl]amino}pyridin-2-yl)-1H-1,2,3-triazol-1-yl]acetonitrile]	0.022
Cc1cc(Nc2cc(C(F)(F)F)ccn2)nc(-c2cn(CC(O)CO)nn2)c1 (racemic) [Example 5.95, 3-[4-(4-methyl-6-{[4-(trifluoromethyl)pyridin-2-yl]amino}pyridin-2-yl)-1H-1,2,3-triazol-1-yl]propane-1,2-diol]	0.0079
Cc1cc(Nc2cc(OC3CCCCC3)ccn2)nc(-c2cn(C(C)c3ccc(C(=O)O)cc3)nn2)c1 (centres unmarked) [Example 2.6, 4-{1-[4-(6-{[4-(cyclohexyloxy)pyridin-2-yl]amino}-4-methylpyridin-2-yl)-1H-1,2,3-triazol-1-yl]ethyl}benzoic acid]	0.0266
Cc1cc(Nc2cc(C(F)(F)F)ccn2)nc(-c2cn(C3CCC(C(N)=O)C(C)(C)C3)nn2)c1 (single isomer, unassigned) [Example 1.5, 2,2-dimethyl-4-[4-(4-methyl-6-{[4-(trifluoromethyl)pyridin-2-yl]amino}pyridin-2-yl)-1H-1,2,3-triazol-1-yl]cyclohexanecarboxamide]	0.008
Cc1cc(Nc2cc(C(F)(F)F)ccn2)nc(-c2cn(CC3(O)CCOC3)nn2)c1 (single isomer, unassigned) [Example 5.11, 3-{[4-(4-methyl-6-{[4-(trifluoromethyl)pyridin-2-yl]amino}pyridin-2-yl)-1H-1,2,3-triazol-1-yl]methyl}tetrahydrofuran-3-ol]	0.0218
Cc1cc(Nc2nccc(C(F)(F)F)n2)cc(-c2cn(C(C)C(O)CC#N)nn2)c1 (single isomer, unassigned) [Example 4.7, 3-hydroxy-4-[4-(3-methyl-5-{[4-(trifluoromethyl)pyrimidin-2-yl]amino}phenyl)-1H-1,2,3-triazol-1-yl]pentanenitrile]	0.0158
Cc1cc(Nc2cc(C(F)(F)F)ccn2)nc(-c2cn(C/C=C/C(N)=O)nn2)c1 [Example 1.26, (2E)-4-[4-(4-methyl-6-{[4-(trifluoromethyl)pyridin-2-yl]amino}pyridin-2-yl)-1H-1,2,3-triazol-1-yl]but-2-enamide]	1.11
Cc1cc(Nc2cc(C(F)(F)F)ccn2)nc(-c2cn(C(C(=O)O)c3ccc(F)cc3)nn2)c1 (centres unmarked) [Example 3.10, (4-fluorophenyl)[4-(4-methyl-6-{[4-(trifluoromethyl)pyridin-2-yl]amino}pyridin-2-yl)-1H-1,2,3-triazol-1-yl]acetic acid]	0.0039
Cc1cc(Nc2cc(C(F)(F)F)ccn2)nc(-c2cn(CC(C)(C)O)nn2)c1 [Example 5.97, 2-methyl-1-[4-(4-methyl-6-{[4-(trifluoromethyl)pyridin-2-yl]amino}pyridin-2-yl)-1H-1,2,3-triazol-1-yl]propan-2-ol]	0.015
Cc1cc(Nc2cc(C(F)(F)F)ccn2)nc(-c2cn(CCc3cn[nH]c3)nn2)c1 [Example 5.105, 4-methyl-6-{1-[2-(1H-pyrazol-4-yl)ethyl]-1H-1,2,3-triazol-4-yl}-N-[4-(trifluoromethyl)pyridin-2-yl]pyridin-2-amine]	0.0021
Cc1cc(Nc2cc(C(F)(F)F)ccn2)nc(-c2cn(CC3(O)CCC(C(=O)O)C(C)(C)C3)nn2)c1 (single isomer, unassigned) [Example 3.1, (R or S) 4-hydroxy-2,2-dimethyl-4-{[4-(4-methyl-6-{[4-(trifluoromethyl)pyridin-2-yl]amino}pyridin-2-yl)-1H-1,2,3-triazol-1-yl]methyl}cyclohexanecarboxylic acid]	0.0607
Cc1cc(Nc2nccc(C(F)(F)F)n2)cc(-n2cc(C3(O)CCC(C(N)=O)C(C)(C)C3)nn2)c1 (centres unmarked) [Example 1.58, 4-hydroxy-2,2-dimethyl-4-[1-(3-methyl-5-{[4-(trifluoromethyl)pyrimidin-2-yl]amino}phenyl)-1H-1,2,3-triazol-4-yl]cyclohexanecarboxamide]	0.0297
Cc1cc(Nc2nccc(C(F)(F)F)n2)cc(-c2cn(C3COCC3O)nn2)c1 (single isomer, unassigned) [Example 4.4, 4-[4-(3-methyl-5-{[4-(trifluoromethyl)pyrimidin-2-yl]amino}phenyl)-1H-1,2,3-triazol-1-yl]tetrahydrofuran-3-ol]	0.0261
